# Measured values: publication PMC10819887, “Production of AFB1 High-Specificity Monoclonal Antibody by Three-Stage Screening Combined with the De-Homologation of Antibodies and the Development of High-Throughput icELISA” (Toxins, 2023)
# Values joined by “and” are separate entries in the source; they are usually repeats but may differ in a detail not shown here. Equal entries are not always repeated.
# Key:
# ZFG8 monoclonal antibody = assay: icELISA working-condition optimization and standard curves (ZFG8, AFB1-BSA); type: binding, mouse
# anti-AFB1 mAb (ZFG8) = type: binding, mouse
substance,measurement,setting,value
aflatoxin B1 [AFB1],IC20-IC80,ZFG8 monoclonal antibody,0.04197 to 0.6299 ng/mL and 0.03329 to 0.9399 ng/mL
same,IC20-IC80 (linear detection range),ZFG8 monoclonal antibody,0.0422 to 1.293 ng/mL
same,IC50,ZFG8 monoclonal antibody; pH 7.4,0.1811 ng/mL
same,Cross-Reactivity (%),anti-AFB1 mAb (ZFG8),100%
same,IC50,anti-AFB1 mAb (ZFG8),0.3162 ng/mL
